Patent US10183952B2, “Thienopyrroles as histone demethylase inhibitors” (ISTITUTO EUROPEO DI ONCOLOGIA S.R.L., priority 2014, dated 2019)
Structures can show the parent of a compound that is named as a salt.

Tests used:
[1] = test system: human leukemia NB4 cells; assay: Cell growth, CellTiter-Fluor Cell Viability Assay, NB4; type: cell-based; conditions: NB-4, 48 h incubation, read-out: IC50 against human leukemia NB4 cells
Text: (§1) The CellTiter-Fluor™ Cell Viability Assay measures the conserved and constitutive protease activity within live cells and therefore acts as a marker for cell viability.
(§2) CellTiter-Flor® (Promega) is as a nonlytic, single-reagent-addition fluorescence assay that measures the relative number of living cells in a culture population after experimental manipulation. The CellTiter-Fluor™ Cell Viability Assay measures the conserved and constitutive protease activity within live cells and therefore acts as a marker for cell viability.
(§3) Human leukemia MV4-11 cells, (obtained from the Deutsche Sammlung von Mikroorganismen und Zellkulturen, ACC 102) or NB4 cells, (obtained from the Deutsche Sammlung von Mikroorganismen und Zellkulturen) in exponential growth, were incubated for 48 h with different concentrations of the inhibitors. After 48 h a volume of CellTiter-Fluor® Reagent equal to one fifth of volume of cell culture medium was added. The content was mixed and incubates for at least 90 min at 37° C. degree to obtain a stable signal. The fluorescence was recorded using an excitation wavelength of 360 nm and an emission at 535 nm. The IC50 was calculated using GraphPad Software.

[2] = test system: human leukemia MV4-11 cells; assay: Cell growth, CellTiter-Fluor Cell Viability Assay, MV4-11; type: cell-based; conditions: 48 h incubation, read-out: IC50 against human leukemia MV4-11 cells
Text: as §1, §2, §3

[3] = target: human recombinant KDM1A/CoREST protein (Homo sapiens, UniProt O60341); assay: Assay of enzyme inhibition of KDM1A (LSD1), TR-FRET
Experimental: The intensity of the light emission is proportional to the level of biotinylated reaction product. The complex of human recombinant KDM1A/CoREST protein was produced in E. coli as separate proteins and co-purified as previously described.
Demethylase reaction was started by the addition of 50 nM histone H3K4 monomethylated.
The resulting mixture was incubated in the dark for 1 h at RT.

Structure (SMILES)	IC50 [1]	IC50 [2]	IC50 [3]
Cn1c(C(=O)Nc2ccccc2COc2ccc(OCC3CCNCC3)cc2)cc2sccc21 [Example 2, 4-methyl-N-[2-[[4-(4-piperidylmethoxy)phenoxy]methyl]phenyl]thieno-[3,2-b]pyrrole-5-carboxamide]	< 20 µM	< 10 µM	< 10 µM
CCn1c(C(=O)Nc2cccc(COc3ccc(OC4CCNCC4)cc3)c2)cc2sccc21 [Example 6, 4-ethyl-N-[3-[[4-(4-piperidyloxy)phenoxy]methyl]phenyl]thieno[3,2-b]pyrrole-5-carboxamide]	< 20 µM	< 10 µM	< 10 µM
CN1CCN(Cc2ccc(OCc3ccccc3NC(=O)c3cc4sccc4n3C)cc2)CC1 [Example 20, 4-methyl-N-[2-[[4-[(4-methylpiperazin-1-yl)methyl]phenoxy]methyl]phenyl]thieno[3,2-b]pyrrole-5-carboxamide]	< 20 µM	< 10 µM	< 10 µM
Cc1ccc(COc2ccc(OCC3CCNC3)cc2)c(NC(=O)c2cc3sccc3n2C)c1 (stereo not drawn) [Example 55, 4-Methyl-N-[5-methyl-2-[[4-(pyrrolidin-3-ylmethoxy)phenoxy]methyl]phenyl]thieno[3,2-b]pyrrole-5-carboxamide]	< 20 µM	< 10 µM	< 10 µM
Cn1c(C(=O)Nc2cccc(COc3ccc(OC4CCNCC4)cc3)c2)cc2sccc21 [Example 10, 4-methyl-N-[3-[[4-(4-piperidyloxy)phenoxy]methyl]phenyl]thieno[3,2-b]pyrrole-5-carboxamide]	< 20 µM	< 10 µM	< 10 µM
Cn1c(C(=O)Nc2ccccc2COc2ccc(OC[C@H]3CCNC3)cc2)cc2sccc21 [Example 11, 4-methyl-N-[2-[[4-[[(3S)-pyrrolidin-3-yl]methoxy]phenoxy]methyl]phenyl]thieno[3,2-b]pyrrole-5-carboxamide]	< 20 µM	< 10 µM	< 10 µM
Cn1c(C(=O)Nc2ccccc2COc2ccc(OCC3CCNC3)cc2)cc2sccc21 (stereo not drawn) [Example 5, 4-methyl-N-[2-[[4-(pyrrolidin-3-ylmethoxy)phenoxy]methyl]phenyl]thieno[3,2-b]pyrrole-5-carboxamide]	< 20 µM	< 10 µM	< 10 µM
CCOCc1cccc(NC(=O)c2cc3sccc3n2C)c1COc1ccc(OC[C@@H]2CCNC2)cc1 [Example 52, N-[3-(Ethoxymethyl)-2-[[4-[[(3R)-pyrrolidin-3-yl]methoxy]phenoxy]methyl]phenyl]-4-methyl-thieno[3,2-b]pyrrole-5-carboxamide hydrochloride]	< 20 µM	< 10 µM	< 10 µM
Cn1c(C(=O)Nc2ccccc2COc2cccc(OC3CCNCC3)c2)cc2sccc21 [Example 18, 4-methyl-N-[2-[[3-(4-piperidyloxy)phenoxy]methyl]phenyl]thieno[3,2-b]pyrrole-5-carboxamide]	< 20 µM	< 10 µM	< 10 µM
CN1CCCC(COc2cccc(NC(=O)c3cc4sccc4n3C)c2)C1 (stereo not drawn) [Example 19, 4-methyl-N-[3-[(1-methyl-3-piperidyl)methoxy]phenyl]thieno[3,2-b]pyrrole-5-carboxamide]	< 20 µM	< 10 µM	< 10 µM
Cn1c(C(=O)Nc2cccc(CN3CCOCC3)c2COc2ccc(OC3CCNCC3)cc2)cc2sccc21 [Example 54, 4-Methyl-N-[3-(morpholinomethyl)-2-[[4-(4-piperidyloxy)phenoxy]methyl]phenyl]thieno[3,2-b]pyrrole-5-carboxamide dihydrochloride]	< 20 µM	< 10 µM	< 10 µM
CCn1c(C(=O)Nc2cccc(COC)c2COc2ccc(OC[C@@H]3CCNC3)cc2)cc2sccc21 [Example 53, 4-Ethyl-N-[3-(methoxymethyl)-2-[[4-[[(3R)-pyrrolidin-3-yl]methoxy]phenoxy]methyl]phenyl]thieno[3,2-b]pyrrole-5-carboxamide; trifluoroacetic acid]	< 20 µM	< 10 µM	< 10 µM

Continued, values first:

IC50 [1]	IC50 [2]	IC50 [3]	Structure (SMILES)
< 20 µM	< 10 µM	< 10 µM	CN1CCC(Oc2ccc(OCc3ccccc3NC(=O)c3cc4sccc4n3C)cc2)CC1 [Example 13, 4-methyl-N-[2-[[4-[(1-methyl-4-piperidyl)oxy]phenoxy]methyl]phenyl]thieno[3,2-b]pyrrole-5-carboxamide]
< 20 µM	< 10 µM	< 10 µM	CN1CCC(Oc2ccc(OCc3cccc(NC(=O)c4cc5sccc5n4C)c3)cc2)CC1 [Example 15, 4-methyl-N-[3-[[4-[(1-methyl-4-piperidyl)oxy]phenoxy]methyl]phenyl]thieno[3,2-b]pyrrole-5-carboxamide]
< 20 µM	< 10 µM	< 10 µM	Cn1c(C(=O)Nc2ccccc2COc2ccc(OC3CCNC3)cc2)cc2sccc21 (stereo not drawn) [Example 16, 4-methyl-N-[2-[(4-pyrrolidin-3-yloxyphenoxy)methyl]phenyl]thieno[3,2-b]pyrrole-5-carboxamide]
< 20 µM	< 10 µM	< 10 µM	CN1CCC(Oc2cccc(OCc3ccccc3NC(=O)c3cc4sccc4n3C)c2)CC1 [Example 17, 4-methyl-N-[2-[[3-[(1-methyl-4-piperidyl)oxy]phenoxy]methyl]phenyl]thieno[3,2-b]pyrrole-5-carboxamide]
< 20 µM	< 10 µM	< 10 µM	Cn1c(C(=O)Nc2ccccc2COc2ccc(O[C@H]3CC[C@@H](N)CC3)cc2)cc2sccc21 [Example 9, N-[2-[[4-(cis-4-aminocyclohexoxy)phenoxy]methyl]phenyl]-4-methyl-thieno[3,2-b]pyrrole-5-carboxamide]
< 20 µM	< 10 µM	< 10 µM	CCn1c(C(=O)Nc2ccccc2COc2ccc(OC3CCN(C)CC3)cc2)cc2sccc21 [Example 12, 4-ethyl-N-[2-[[4-[(1-methyl-4-piperidyl)oxy]phenoxy]methyl]phenyl]thieno[3,2-b]pyrrole-5-carboxamide]
< 20 µM	< 10 µM	< 10 µM	CCN1CCC(Oc2ccc(OCc3ccccc3NC(=O)c3cc4sccc4n3C)cc2)CC1 [Example 3, N-[2-[[4-[(1-ethyl-4-piperidyl)oxy]phenoxy]methyl]phenyl]-4-methyl-thieno[3,2-b]pyrrole-5-carboxamide]
< 20 µM	< 10 µM	< 10 µM	Cn1c(C(=O)Nc2ccccc2COc2ccc(OC3CCNCC3)cc2)cc2sccc21 [Example 1, 4-Methyl-N-[2-[[4-(4-piperidyloxy)phenoxy]methyl]phenyl]thieno[3,2-b]pyrrole-5-carboxamide]
